# Legend:
# [1] = tested on: intracranial LN229-H2B-EGFP tumors; experiment: Intracranial LN229 xenograft tumors in nu/nu mice; format: in vivo
# Method: Adult female NCI nu/nu mice were anesthetized and LN229-H2B-EGFP cells (2.5×10^4 in 1 μl PBS) were stereotactically implanted in the putamen region (1 mm anterior and 2.5 mm lateral to the Bregma at the depth of 3.5 mm at a rate of 0.1 μl/min). Mice were monitored for recovery until complete wakening. 20 days after implantation, mice were injected i.p. with SK1-I (20 mg/kg in PBS) every other day. Mice were observed daily following tumor implantation and were euthanized on reaching a moribund state.
# Experiments were repeated at least three times with consistent results. For each experiment, data from triplicate samples were expressed as means±S.D. Statistics were performed by single factor ANOVA, and p<0.05 was considered significant. The Kaplan-Meier estimator was used to generate the survival curves and to estimate the median survival values. Differences between survival curves were compared using a log-rank test.
# Akt [2] = experiment: Western blotting of Akt phosphorylation, LN229 cells; format: cell-based, human; details: LN229, serum, LPA or EGF stimulated, 20 minutes treatment
# Method: (§1) Cells were scraped in buffer containing 20 mM Tris-HCl, pH 7.5, 50 mM NaCl, 50 mM NaF, 30 mM Na4P2O7, 20 mM 2-glycerophosphate, 1 mM Na3VO4, 5 mM EDTA, 2 mM EGTA, 0.5% SDS and protease inhibitor cocktail (1:200 dilution) and probe-sonicated. Equal amounts of protein determined with bicinchoninic acid (Pierce, Rockford, Ill.), were resolved by SDS-PAGE and transferred to nitrocellulose membranes. Blots were blocked with 5% non-fat dry milk in Tris-buffered saline containing 0.1% […] (TBST) for 1 h at room temperature, and then incubated with primary antibodies (1:3,000 in 1% BSA) overnight, followed by the appropriate HRP-conjugated secondary antibodies (1:40,000 in 1% BSA). Immunocomplexes were visualized by enhanced chemiluminescence (Pierce).
# [3] = tested on: human leukemic cell lines; details: U.S. Ser. No. 12/387,228; cited from earlier work
# p70S6K = experiment: Western blotting of p70S6K phosphorylation, LN229 cells; format: cell-based, human
# Method: as §1
# LN229 cells [4] = experiment: In vitro invasion into Matrigel, LN229 cells; format: cell-based, human
# Method: (§2) Boyden chamber invasion assays were carried out essentially as described (Shida et al. Cancer Res 68:6569-6577, 2008).
# LN229 cells [5] = experiment: Apoptosis of LN229 cells (PARP cleavage, nuclear condensation, TUNEL); format: cell-based, human
# Method: Cells were grown on 3-aminopropyl-triethoxysilane-treated 15 mm glass cover slips in 24 well plates. Following treatments, cells were washed with PBS, fixed with 3% paraformaldehyde for 10 min at room temperature, and blocked in TBST buffer containing 1% BSA. After washing, cells were incubated in the same buffer containing Alexa-conjugated phalloidin for 30 min, followed by 15 min incubation in 10 μg/ml of Hoechst 33342. For TUNEL assays, fixed cells were permeabilized with 0.5% TX-100 for 30 min, washed and incubated in TdT buffer supplemented with 250 μM CoCl2, 20 units TdT (NEB, Ipswich, Mass.) and 1 nM fluorescein-12-dUTP (Roche) for 1 h at 37° C. […]
# Cells were plated at 10,000 cells/well in 48-well plates and allowed to attach for 24 h. Cell proliferation was measured at the indicated times with WST-1 and absorbance was measured in a plate reader at 450 nm with background subtraction at 630 nm. Cell death was detected by trypan blue exclusion assays in which the percent of blue dye incorporating cells were determined using a light microscope and a hemacytometer as described (Yacoub et al. Mol Cancer Ther 7:314-329, 2008). Apoptotic cell death was measured by staining cell nuclei with the Hoechst dye bisbenzimide and apoptotic cells were identified by condensed, fragmented nuclear regions as described previously (Sankala et al. Cancer Res 67:10466-10474, 2007). […]
# U373 cells [6] = experiment: PMA-stimulated F-actin reorganization and lamellipodia formation (phalloidin staining, confocal); format: cell-based, human
# Method: Cells were grown on 3-aminopropyl-triethoxysilane-treated 15 mm glass cover slips in 24 well plates. Following treatments, cells were washed with PBS, fixed with 3% paraformaldehyde for 10 min at room temperature, and blocked in TBST buffer containing 1% BSA. After washing, cells were incubated in the same buffer containing Alexa-conjugated phalloidin for 30 min, followed by 15 min incubation in 10 μg/ml of Hoechst 33342. For TUNEL assays, fixed cells were permeabilized with 0.5% TX-100 for 30 min, washed and incubated in TdT buffer supplemented with 250 μM CoCl2, 20 units TdT (NEB, Ipswich, Mass.) and 1 nM fluorescein-12-dUTP (Roche) for 1 h at 37° C. Coverslips were washed with TBST, rinsed in water, air dried and mounted on glass slides with Cytoseal 60 polymer (Richard-Allan Scientific, Kalamazoo, Mich.). Images were collected on an LSM 510 laser confocal microscope (Zeiss, Thornwood, N.Y.) with a 100× oil immersion objective.
# Akt [7] = experiment: Western blotting of Akt phosphorylation, GBM6 cells; format: cell-based, human; details: GBM6, shortly following treatment
# Method: as §1
# U373 cells [8] = experiment: Boyden chamber chemotaxis, U373 cells; format: cell-based, human
# Method: as §2
# [9] = Metabolism of SK1-I in cells by LC-ESI-MS/MS; format: in vitro ADME
# Excerpt: Lipids were extracted and phosphorylated and unphosphorylated sphingoid bases, individual ceramide acyl chain species, as well as SK1-I and its metabolites were quantified by liquid chromatography, electrospray ionization-tandem mass spectrometry (LC-ESI-MS/MS) as described previously (Merrill et al. Methods 36:207-224, 2005).
# U373 cells [10] = experiment: Cell proliferation (WST-1), U373 cells; format: cell-based, human
# Method: U373-MG and LN229 human glioblastoma cells (ATTC, Manassas, Va.) were cultured in DMEM supplemented with 5% FCS. Primary human non-established glioblastoma GBM6 cells were kindly provided by Dr. C. David James and were passaged as tumors in nude mice and subcultured for 1 week following isolation from tumors in media containing 2% FCS to prevent growth of contaminating rodent fibroblasts and then cultured in 5% FCS as described (Yacoub et al., Mol Cancer Ther 7:314-329, 2008). LN229 cells were transfected with H2B-EGFP plasmid and stable colonies were isolated following selection with 1 mg/ml of G418. LN229-H2B-EGFP cells were passaged as tumors as described above.
# (§3) Cells were plated at 10,000 cells/well in 48-well plates and allowed to attach for 24 h. Cell proliferation was measured at the indicated times with WST-1 and absorbance was measured in a plate reader at 450 nm with background subtraction at 630 nm. Cell death was detected by trypan blue exclusion assays in which the percent of blue dye incorporating cells were determined using a light microscope and a hemacytometer as described (Yacoub et al. Mol Cancer Ther 7:314-329, 2008). Apoptotic cell death was measured by staining cell nuclei with the Hoechst dye bisbenzimide and apoptotic cells were identified by condensed, fragmented nuclear regions as described previously (Sankala et al. Cancer Res 67:10466-10474, 2007). A minimum of 300 cells was scored.
# [11] = tested on: blasts obtained from patients with AML; details: U.S. Ser. No. 12/387,228; cited from earlier work
# U87 cells = experiment: Proliferation of U87 glioblastoma cells; format: cell-based, human
# Method: as §3
# Akt [12] = target: Akt (Homo sapiens, UniProt P31749); details: Paugh et al. Blood 2008; cited from earlier work
# U118 cells = experiment: Proliferation of U118 glioblastoma cells; format: cell-based, human
# Method: as §3
# Akt (Homo sapiens, UniProt P31749), sequence (P31749 whole entry): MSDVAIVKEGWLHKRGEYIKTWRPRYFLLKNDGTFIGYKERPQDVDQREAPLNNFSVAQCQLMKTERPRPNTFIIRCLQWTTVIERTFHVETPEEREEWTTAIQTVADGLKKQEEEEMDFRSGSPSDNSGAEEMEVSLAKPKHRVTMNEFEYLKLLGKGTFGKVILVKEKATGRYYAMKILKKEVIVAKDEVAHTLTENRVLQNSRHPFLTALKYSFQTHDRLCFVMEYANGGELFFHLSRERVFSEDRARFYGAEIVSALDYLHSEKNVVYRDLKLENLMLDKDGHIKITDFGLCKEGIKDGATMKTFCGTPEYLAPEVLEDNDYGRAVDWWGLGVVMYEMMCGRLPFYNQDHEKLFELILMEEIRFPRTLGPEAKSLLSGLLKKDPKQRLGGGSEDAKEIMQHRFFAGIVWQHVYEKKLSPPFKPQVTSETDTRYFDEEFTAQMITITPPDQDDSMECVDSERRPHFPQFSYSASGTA
smiles,measurement,setting,value
"CCCCCc1ccc(/C=C/[C@H](O)[C@@H](CO)NC)cc1 [SK1-I, (2R,3S,4E)-N-methyl-5-(4′-pentylphenyl)-2-aminopent-4-ene-1,3-diol]",symptoms of tumor burden,"[1]; 20 mg/kg i.p. every other day from day 20, when vehicle mice were moribund (day 43-49)",None of the SK1-I treated mice showed any symptoms
same,tumors on T2W MRI,[1]; day 48,no tumors were evident
same,tumor on gadolinium enhanced MRI,"[1]; day 48, site of injection",small tumor
same,Kaplan-Meier survival,"[1]; i.p. administration, vs vehicle control",significant survival benefit
same,invading GFP-labeled LN229 cells in intracranial tumor sections,[1]; vs vehicle treated animals,significantly fewer invading cells
same,phosphorylation of Akt at Thr308 and Ser473,Akt [2],markedly suppressed
same,apoptosis,[3],markedly induced apoptosis
same,activation of p70S6K (Thr389),p70S6K,reduced activation
same,"LPA-, serum- and EGF-stimulated in vitro invasion of Matrigel",LN229 cells [4],greatly attenuated
same,"apoptosis (PARP cleavage, fragmented and condensed nuclei, TUNEL)",LN229 cells [5],induced apoptosis
same,PMA-stimulated F-actin reorganization at the leading edge and formation of lamellipodia,U373 cells [6],dramatically reduced
same,basal and serum- and EGF-stimulated phosphorylation of Akt,Akt [7],reduced
same,chemotaxis toward serum or EGF,U373 cells [8],reduced
same,other metabolites,[9]; after 24 h,no other metabolites were detected
same,phosphorylation of the compound,[9]; in contrast to FTY720,not readily phosphorylated
same,cell growth,"U373 cells [10]; U373, 10 μM, absence of serum",strongly inhibited growth
same,cell numbers,"U373 cells [10]; U373, 10 μM, presence of serum, within 2-4 days",severe reductions in cell numbers
same,concentration at which a significant growth inhibitory effect was observed,U373 cells [10]; U373 cells,3 µM
same,apoptosis,[11],markedly induced apoptosis
same,proliferation,U87 cells,suppress proliferation
same,Akt activity in an in vitro kinase assay,Akt [12],did not inhibit Akt activity
same,proliferation,U118 cells,suppress proliferation

# — US10945971B2, “Sphingosine kinase type 1 inhibitors and uses thereof” (Enzo Therapeutics, Inc., priority 2008, dated 2021)
